Laboratory results published in patent publication US11090308B2, “Methods of treating liver disorders or lipid disorders with a THR-beta agonist” (Madrigal Pharmaceuticals, Inc., priority 2016, dated 2021).
Read-outs that look alike come from different tables or passages of the source.

What was measured:
Assay type in all cases: in vitro ADME
[1] = molecular target: T1, CYP2B6 (Homo sapiens, UniProt P20813); assay: In vitro Cytochrome P-450 enzyme assay, CYP2B6
T1 sequence (P20813 1-491): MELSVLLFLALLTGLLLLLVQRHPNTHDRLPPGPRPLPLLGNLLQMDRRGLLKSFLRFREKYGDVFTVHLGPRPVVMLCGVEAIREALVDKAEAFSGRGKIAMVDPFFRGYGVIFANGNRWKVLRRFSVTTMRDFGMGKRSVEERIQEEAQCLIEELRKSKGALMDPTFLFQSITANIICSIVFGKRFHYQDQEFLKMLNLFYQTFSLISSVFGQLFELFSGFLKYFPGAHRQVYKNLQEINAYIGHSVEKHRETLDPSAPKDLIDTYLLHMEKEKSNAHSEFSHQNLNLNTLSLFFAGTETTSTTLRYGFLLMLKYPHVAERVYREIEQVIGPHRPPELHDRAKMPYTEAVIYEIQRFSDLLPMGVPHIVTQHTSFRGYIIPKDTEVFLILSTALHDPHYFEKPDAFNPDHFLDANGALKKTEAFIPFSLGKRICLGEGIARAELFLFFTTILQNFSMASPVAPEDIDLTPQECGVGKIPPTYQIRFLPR
Description: (§1) The following studies have been conducted: (a) in vitro drug protein binding, transporter (organic anion transporting polypeptide [OATP], P-glycoprotein [P-gp], breast cancer-related protein [BCRP], and multiple drug resistance protein 1 [MDR1]), and cytochrome P-450 enzyme assays to investigate absorption, distribution, and excretion; (b) in vivo MGL-3196 rat and dog oral PK and bioavailability studies; (c) in vivo ^14C-MGL-3196 rat and dog oral pharmacokinetics, absorption, excretion, and tissue distribution by quantitative whole-body autoradiography (QWBA) studies; and (d) liver disposition of MGL-3196 using an in vitro sandwiched hepatocyte model system (B-CLEAR® technology) in dog (SCDH) and human (SCHH) hepatocytes.

[2] = molecular target: CYP2C9 (Homo sapiens, UniProt P11712); assay: In vitro Cytochrome P-450 enzyme assay, CYP2C9; details: for IC50: read-out: Inhibitor of: CYP2C9, IC50
[3] = molecular target: T2, CYP2C8 (Homo sapiens, UniProt P10632); assay: In vitro Cytochrome P-450 enzyme assay, CYP2C8; details: for IC50: read-out: Inhibitor of: CYP2C8, IC50
T2 sequence (P10632 1-490): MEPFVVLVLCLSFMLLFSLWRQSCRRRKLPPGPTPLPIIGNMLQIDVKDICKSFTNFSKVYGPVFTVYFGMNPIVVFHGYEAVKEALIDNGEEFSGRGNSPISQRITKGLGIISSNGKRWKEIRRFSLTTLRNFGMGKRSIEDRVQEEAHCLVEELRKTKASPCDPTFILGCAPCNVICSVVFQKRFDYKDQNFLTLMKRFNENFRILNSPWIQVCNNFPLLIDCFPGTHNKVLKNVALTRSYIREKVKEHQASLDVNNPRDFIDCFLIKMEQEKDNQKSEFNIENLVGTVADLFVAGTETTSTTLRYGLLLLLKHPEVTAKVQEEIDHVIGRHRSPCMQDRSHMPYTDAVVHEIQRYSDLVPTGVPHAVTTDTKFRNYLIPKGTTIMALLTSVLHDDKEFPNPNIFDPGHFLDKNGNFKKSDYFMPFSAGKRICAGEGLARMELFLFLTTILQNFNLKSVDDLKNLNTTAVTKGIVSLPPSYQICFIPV
Description: as §1

[4] = molecular target: T3, OATP1B1 (Homo sapiens, UniProt Q9Y6L6); assay: In vitro drug transporter assay, OATP1B1
T3 sequence (Q9Y6L6 1-691): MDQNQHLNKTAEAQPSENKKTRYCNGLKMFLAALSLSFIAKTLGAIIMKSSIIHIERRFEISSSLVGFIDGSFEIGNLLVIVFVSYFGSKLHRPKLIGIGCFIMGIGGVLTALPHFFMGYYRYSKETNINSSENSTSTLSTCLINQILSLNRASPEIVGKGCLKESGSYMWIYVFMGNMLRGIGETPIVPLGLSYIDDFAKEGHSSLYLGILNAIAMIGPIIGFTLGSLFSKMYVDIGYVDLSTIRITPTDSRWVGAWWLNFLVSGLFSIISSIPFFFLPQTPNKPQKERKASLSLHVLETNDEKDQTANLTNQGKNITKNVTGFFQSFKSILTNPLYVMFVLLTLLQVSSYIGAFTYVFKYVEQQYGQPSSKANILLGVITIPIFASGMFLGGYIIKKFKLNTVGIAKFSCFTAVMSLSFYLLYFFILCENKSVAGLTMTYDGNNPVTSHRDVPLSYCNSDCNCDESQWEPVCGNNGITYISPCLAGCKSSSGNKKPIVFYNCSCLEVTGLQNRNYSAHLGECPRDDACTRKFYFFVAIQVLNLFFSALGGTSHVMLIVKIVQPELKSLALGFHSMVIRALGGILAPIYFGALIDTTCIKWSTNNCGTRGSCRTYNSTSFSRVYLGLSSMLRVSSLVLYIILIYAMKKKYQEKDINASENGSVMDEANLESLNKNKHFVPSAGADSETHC
Description: as §1

Chain of CYP2C9 (P11712 whole entry): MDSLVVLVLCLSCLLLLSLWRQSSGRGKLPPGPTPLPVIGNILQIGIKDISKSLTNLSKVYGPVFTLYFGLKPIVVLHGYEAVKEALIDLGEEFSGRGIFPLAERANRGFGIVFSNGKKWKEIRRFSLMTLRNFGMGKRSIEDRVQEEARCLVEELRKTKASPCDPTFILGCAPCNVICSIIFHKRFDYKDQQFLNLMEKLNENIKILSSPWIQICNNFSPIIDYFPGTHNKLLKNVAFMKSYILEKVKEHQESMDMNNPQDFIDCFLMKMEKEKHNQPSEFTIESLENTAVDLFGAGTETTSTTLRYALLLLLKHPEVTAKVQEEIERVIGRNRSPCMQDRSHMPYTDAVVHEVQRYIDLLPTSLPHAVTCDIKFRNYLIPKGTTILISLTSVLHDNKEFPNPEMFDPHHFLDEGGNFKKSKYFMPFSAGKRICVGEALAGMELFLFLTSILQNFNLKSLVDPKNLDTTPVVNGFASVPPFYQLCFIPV

Row | SMILES | Inhibitor of: CYP2B6 [1] | Substrate for: CYP2C9 [2] | IC50 [2] [µM] | Substrate for: CYP2C8 [3] | IC50 [3] [µM] | Substrate for: OATP1B1 [4] | Inhibitor of: OATP1B1, % inhibition ([4]; @ 10 uM Pravastatin) [%] | IC50 ([4]; read-out: Inhibitor of: OATP1B1, IC50) [µM] | IC50 ([1]; range given jointly for CYP2B6, CYP2C9, CYP2C19, weak, read-out: Inhibitor of: CYP2B6, IC50) [µM] | IC50 ([2]; range given jointly for CYP2B6, CYP2C9, CYP2C19, weak) [µM] | inhibition at 10 µM ([4]; @10 uM, insignificant, read-out: Inhibitor of: OATP1B1, % inhib) [%]
1 | CC(C)c1cc(Oc2c(Cl)cc(-n3nc(C#N)c(=O)[nH]c3=O)cc2Cl)n[nH]c1=O [MGL-3196, 2-(3,5-dichloro-4-((5-isopropyl-6-oxo-1,6-dihydropyridazin-3-yl)oxy)phenyl)-3,5-dioxo-2,3,4,5-tetrahydro-1,2,4-triazine-6-carbonitrile] | not an inhibitor | CYP2C9; | 22 | CYP2C8; | 0.9 | OATP1B1; | 29 | 3.7 | – | – | –
2 | CC(CO)c1cc(Oc2c(Cl)cc(-n3nc(C#N)c(=O)[nH]c3=O)cc2Cl)n[nH]c1=O (centres unmarked) [MGL-3623] | – | – | – | CYP 2C8 | 6.1 | OATP1B1 | – | – | 24 to 35 | 24 to 35 | 23
